Measured values: patent US20090252673A1, “Methods of Making and Using Rubidium-81-Containing Compositions” (priority 2006, published 2009)

How the values were obtained:
[1] = Biodistribution of Rb-81 in rats; format: in vivo, female Wistar rats; conditions: mean±SD, n=3
Protocol: 1.85-5.33 MBq (50-144 μCi) Rb-81 in 250 μl isotonic saline was injected into the lateral tail vein of 24 non-fasted female Wistar rats weighing 180-220 g (12 animals at each day).
All the animals were anesthesized with Isofluran (1.5 vol. % and 2.01/min 02) during the injection of the Rb-81 solution. 5 min, 10 min, 20 min, 30 min, 45 min, 1 h, 2 h and 4 h post injection of the Rb-81 solution, the animals were sacrificed by carbon dioxide inhalation (n=3 animals for all time points).
The organs of interest (heart, blood, lungs, liver, stomach, spleen, pancreas, small intestine, colon, kidney, adrenal gland, muscle, bone, brain and tail) were dissected, weighed and measured for activity using a well-type g-counter. Tracer accumulation was normalized to the organ weights. All data are expressed as percent of the injected dose per gram tissue (% ID/g, mean±SD).

[2] = test system: occlusion/reperfusion rat heart model; experiment: Ex vivo dual tracer autoradiography, Tl-201 and Rb-81 redistribution kinetics; format: in vivo, rats; conditions: for activity in occluded areas, percent of the uptake in normal tissues: 20 μm heart slices, phosphor-imager ROIs
Protocol: Three additional rats were simultaneously injected with 20 MBq Rb-81 and 2.7 MBq Tl-201. After the occlusion/injection/reperfusion procedure was completed (see FIG. 8), the animals were sacrificed at 0, 15 and 45 min after initiating the reperfusion.
After the hearts of the animals were removed and freshly frozen in liquid nitrogen, they were sliced into short axis 20 μm slices. Radioactivity in the tissues sections was determined by using a phosphor-imager. Rb-81 was measured over a period of 3 h directly after preparation of the slices, whereas the Tl-201 activity was determined after the Rb-81 activity was almost completed (Rb-81: t1/2=4.58 h versus a 4 day decay period).
Quantitative evaluations were carried out by comparison of the detected counts within regions-of-interest in both, normal tissue areas and occluded tissues areas. Comparisons are given in percent of normal heart tissue.

[3] = test system: rat heart (myocardium), normal and occlusion/reperfusion; experiment: Imaging of rat hearts using a small animal PET scanner; format: in vivo, female Wistar rats
Protocol: For the PET measurements, a microPET FOCUS 120 small animal scanner (Siemens Medical Solutions USA, Inc.) was used. Imaging was done on 4 female Wistar rats (200-250 g) (see Tab. 1). […] After 5 min, the occlusion was removed and dynamic PET images of the animals were taken for 4 h and 2 h. Two rats were used as controls without occlusion (rest). The first rat was injected with 20.2 MBq Rb-81 and the second rat with 69.3 MBq Rb-81, in 500 μl isotonic saline. Following injection, dynamic PET images of the animals were taken for 4 h (S1#1 und S1#2) and 2 h (S2#3 and S2#4). The Rb-81 solution was injected intravenously in the lateral tail vein of all animals. For occlusion, a 7-0 polypropylene suture on a small curved needle was passed through the left coronary artery (LCA), and ligated to occlude the LCA. After tracer injection, reperfusion was obtained by cutting the suture. LCA occlusion and reperfusion were confirmed by the color change of myocardial surface. […]
After PET imaging, all animals were sacrificed by carbon dioxide inhalation and the organs of interest (see above) were dissected, weighed and measured for activity using a well-type g-counter. […] All data are expressed as percent of the injected dose per gram tissue (% ID/g, mean±SD). […]

[4] = 5 min after application into the tail vein
[5] = 10 min after application into the tail vein
[6] = 20 min after application into the tail vein
[7] = 30 min after application into the tail vein
[8] = 45 min after application into the tail vein
[9] = 60 min after application into the tail vein
[10] = 120 min after application into the tail vein
[11] = 240 min after application into the tail vein

Structure (SMILES): [81Rb] [Rb-81, Rubidium-81]
- biodistribution, Adrenals [1, 4]: 3.68 ± 0.89 % ID/g
- biodistribution, Blood [1, 4]: 0.25 ± 0.07 % ID/g
- biodistribution, Bone [1, 4]: 0.48 ± 0.10 % ID/g
- biodistribution, Brain [1, 4]: 0.10 ± 0.02 % ID/g
- biodistribution, Heart [1, 4]: 4.18 ± 0.18 % ID/g
- biodistribution, Kidney [1, 4]: 9.21 ± 0.98 % ID/g
- biodistribution, Large Intestine [1, 4]: 1.03 ± 0.82 % ID/g
- biodistribution, Liver [1, 4]: 1.25 ± 0.05 % ID/g
- biodistribution, Lung [1, 4]: 2.09 ± 0.43 % ID/g
- biodistribution, Muscle [1, 4]: 0.18 ± 0.02 % ID/g
- biodistribution, Pancreas [1, 4]: 1.81 ± 0.20 % ID/g
- biodistribution, Small Intestine [1, 4]: 4.06 ± 0.91 % ID/g
- biodistribution, Spleen [1, 4]: 1.45 ± 0.30 % ID/g
- biodistribution, Stomach [1, 4]: 0.80 ± 0.41 % ID/g
- biodistribution, Adrenals [1, 5]: 3.44 ± 1.07 % ID/g
- biodistribution, Blood [1, 5]: 0.22 ± 0.04 % ID/g
- biodistribution, Bone [1, 5]: 0.66 ± 0.09 % ID/g
- biodistribution, Brain [1, 5]: 0.09 ± 0.03 % ID/g
- biodistribution, Heart [1, 5]: 4.30 ± 0.68 % ID/g
- biodistribution, Kidney [1, 5]: 6.96 ± 1.39 % ID/g
- biodistribution, Large Intestine [1, 5]: 1.22 ± 0.05 % ID/g
- biodistribution, Liver [1, 5]: 2.37 ± 0.20 % ID/g
- biodistribution, Lung [1, 5]: 1.74 ± 0.18 % ID/g
- biodistribution, Muscle [1, 5]: 0.31 ± 0.12 % ID/g
- biodistribution, Pancreas [1, 5]: 2.70 ± 0.02 % ID/g
- biodistribution, Small Intestine [1, 5]: 3.47 ± 0.33 % ID/g
- biodistribution, Spleen [1, 5]: 1.88 ± 0.21 % ID/g
- biodistribution, Stomach [1, 5]: 0.63 ± 0.26 % ID/g
- biodistribution, Adrenals [1, 6]: 2.92 ± 0.45 % ID/g
- biodistribution, Blood [1, 6]: 0.21 ± 0.04 % ID/g
- biodistribution, Bone [1, 6]: 0.65 ± 0.15 % ID/g
- biodistribution, Brain [1, 6]: 0.11 ± 0.02 % ID/g
- biodistribution, Heart [1, 6]: 2.55 ± 0.47 % ID/g
- biodistribution, Kidney [1, 6]: 2.90 ± 0.51 % ID/g
- biodistribution, Large Intestine [1, 6]: 0.70 ± 0.07 % ID/g
- biodistribution, Liver [1, 6]: 2.47 ± 0.64 % ID/g
- biodistribution, Lung [1, 6]: 1.62 ± 0.46 % ID/g
- biodistribution, Muscle [1, 6]: 0.31 ± 0.02 % ID/g
- biodistribution, Pancreas [1, 6]: 2.29 ± 0.73 % ID/g
- biodistribution, Small Intestine [1, 6]: 2.73 ± 0.64 % ID/g
- biodistribution, Spleen [1, 6]: 1.97 ± 0.47 % ID/g
- biodistribution, Stomach [1, 6]: 1.20 ± 0.46 % ID/g
- biodistribution, Adrenals [1, 7]: 2.08 ± 0.60 % ID/g
- biodistribution, Blood [1, 7]: 0.19 ± 0.03 % ID/g
- biodistribution, Bone [1, 7]: 0.63 ± 0.03 % ID/g
- biodistribution, Brain [1, 7]: 0.09 ± 0.01 % ID/g
- biodistribution, Heart [1, 7]: 2.69 ± 0.32 % ID/g
- biodistribution, Kidney [1, 7]: 2.91 ± 0.37 % ID/g
- biodistribution, Large Intestine [1, 7]: 0.53 ± 0.14 % ID/g
- biodistribution, Liver [1, 7]: 2.60 ± 0.43 % ID/g
- biodistribution, Lung [1, 7]: 1.73 ± 0.31 % ID/g
- biodistribution, Muscle [1, 7]: 0.36 ± 002 % ID/g
- biodistribution, Pancreas [1, 7]: 2.12 ± 0.13 % ID/g
- biodistribution, Small Intestine [1, 7]: 2.33 ± 0.72 % ID/g
- biodistribution, Spleen [1, 7]: 1.26 ± 0.78 % ID/g
- biodistribution, Stomach [1, 7]: 0.88 ± 0.24 % ID/g
- biodistribution, Adrenals [1, 8]: 1.32 ± 0.88 % ID/g
- biodistribution, Blood [1, 8]: 0.15 ± 0.08 % ID/g
- biodistribution, Bone [1, 8]: 0.38 ± 0.18 % ID/g
- biodistribution, Brain [1, 8]: 0.07 ± 0.03 % ID/g
- biodistribution, Heart [1, 8]: 1.58 ± 0.79 % ID/g
- biodistribution, Kidney [1, 8]: 1.56 ± 0.77 % ID/g
- biodistribution, Large Intestine [1, 8]: 0.47 ± 0.22 % ID/g
- biodistribution, Liver [1, 8]: 1.79 ± 1.07 % ID/g
- biodistribution, Lung [1, 8]: 1.02 ± 0.45 % ID/g
- biodistribution, Muscle [1, 8]: 0.21 ± 0.06 % ID/g
- biodistribution, Pancreas [1, 8]: 1.76 ± 0.91 % ID/g
- biodistribution, Small Intestine [1, 8]: 1.45 ± 0.82 % ID/g
- biodistribution, Spleen [1, 8]: 1.27 ± 0.57 % ID/g
- biodistribution, Stomach [1, 8]: 0.57 ± 0.24 % ID/g
- biodistribution, Adrenals [1, 9]: 1.45 ± 0.43 % ID/g
- biodistribution, Blood [1, 9]: 0.17 ± 0.01 % ID/g
- biodistribution, Bone [1, 9]: 0.54 ± 0.16 % ID/g
- biodistribution, Brain [1, 9]: 0.08 ± 0.02 % ID/g
- biodistribution, Heart [1, 9]: 1.48 ± 0.41 % ID/g
- biodistribution, Kidney [1, 9]: 1.45 ± 0.14 % ID/g
- biodistribution, Large Intestine [1, 9]: 0.53 ± 0.20 % ID/g
- biodistribution, Liver [1, 9]: 2.25 ± 0.77 % ID/g
- biodistribution, Lung [1, 9]: 1.00 ± 0.44 % ID/g
- biodistribution, Muscle [1, 9]: 0.35 ± 0.14 % ID/g
- biodistribution, Pancreas [1, 9]: 1.99 ± 0.73 % ID/g
- biodistribution, Small Intestine [1, 9]: 1.25 ± 0.34 % ID/g
- biodistribution, Spleen [1, 9]: 1.43 ± 0.41 % ID/g
- biodistribution, Stomach [1, 9]: 0.64 ± 0.31 % ID/g
- biodistribution, Adrenals [1, 10]: 0.56 ± 0.22 % ID/g
- biodistribution, Blood [1, 10]: 0.10 ± 0.05 % ID/g
- biodistribution, Bone [1, 10]: 0.33 ± 0.12 % ID/g
- biodistribution, Brain [1, 10]: 0.06 ± 0.03 % ID/g
- biodistribution, Heart [1, 10]: 0.67 ± 0.21 % ID/g
- biodistribution, Kidney [1, 10]: 0.76 ± 0.27 % ID/g
- biodistribution, Large Intestine [1, 10]: 0.36 ± 0.24 % ID/g
- biodistribution, Liver [1, 10]: 1.32 ± 0.73 % ID/g
- biodistribution, Lung [1, 10]: 0.60 ± 0.23 % ID/g
- biodistribution, Muscle [1, 10]: 0.24 ± 0.13 % ID/g
- biodistribution, Pancreas [1, 10]: 1.31 ± 0.66 % ID/g
- biodistribution, Small Intestine [1, 10]: 0.83 ± 0.37 % ID/g
- biodistribution, Spleen [1, 10]: 0.88 ± 0.42 % ID/g
- biodistribution, Stomach [1, 10]: 0.34 ± 0.15 % ID/g
- biodistribution, Adrenals [1, 11]: 0.75 ± 0.07 % ID/g
- biodistribution, Blood [1, 11]: 0.20 ± 0.01 % ID/g
- biodistribution, Bone [1, 11]: 0.61 ± 0.04 % ID/g
- biodistribution, Brain [1, 11]: 0.13 ± 0.01 % ID/g
- biodistribution, Heart [1, 11]: 0.81 ± 0.02 % ID/g
- biodistribution, Kidney [1, 11]: 0.90 ± 0.04 % ID/g
- biodistribution, Large Intestine [1, 11]: 0.59 ± 0.05 % ID/g
- biodistribution, Liver [1, 11]: 1.90 ± 0.03 % ID/g
- biodistribution, Lung [1, 11]: 0.79 ± 0.05 % ID/g
- biodistribution, Muscle [1, 11]: 0.61 ± 0.11 % ID/g
- biodistribution, Pancreas [1, 11]: 1.65 ± 0.20 % ID/g
- biodistribution, Small Intestine [1, 11]: 0.89 ± 0.02 % ID/g
- biodistribution, Spleen [1, 11]: 1.34 ± 0.06 % ID/g
- biodistribution, Stomach [1, 11]: 0.44 ± 0.15 % ID/g
- activity in occluded areas, percent of the uptake in normal tissues ([2]; 0 min p.i.): 7%
- activity in occluded areas, percent of the uptake in normal tissues ([2]; 15 min p.i.): 37%
- activity in occluded areas, percent of the uptake in normal tissues ([2]; 45 min p.i.): 82%
- redistribution kinetics ([2]; compared with Tl-201, occluded heart areas after reperfusion): considerably faster
- uptake in the myocardium ([3]; PET summation images, rat): highest shortly after administration
- period after re-opening of the occlusion over which filling in of the defect takes place (redistribution) ([3]; PET, rat with temporary coronary artery occlusion): 40 to 50 min

Structure (SMILES): [201Tl] [Tl-201, reference compound]
- activity in occluded areas, percent of the uptake in normal tissues ([2]; 0 min p.i.): 5%
- activity in occluded areas, percent of the uptake in normal tissues ([2]; 15 min p.i.): 28%
- activity in occluded areas, percent of the uptake in normal tissues ([2]; 45 min p.i.): 58%
